{
  "source": "patent US9949981B2",
  "about": "“Compositions and methods for treating proliferation disorders” (Arqule, Inc., priority 2014, dated 2018)",
  "key": {"EN": {"test_system": "EN", "experiment": "MTS assay, combination study", "details": "72 h"}, "HCT116": {"test_system": "HCT116", "experiment": "MTS assay, combination study", "details": "Homo sapiens, HCT-116, 72 h"}, "[1]": {"test_system": "S6 phosphorylation in PIK3CA p.H1047R mutation (PS109.3) or control cells (PS95.2)", "experiment": "Phosphorylation status of S6 in PIK3CA p.H1047R cells", "type": "cell-based, human", "details": "with or without serum; 24 hours; FIGS. 11A and 11B"}, "Fadu": {"test_system": "Fadu", "experiment": "MTS assay, combination study", "details": "Homo sapiens, 72 h"}, "TOV21G": {"test_system": "TOV21G", "experiment": "MTS assay, combination study", "details": "Homo sapiens, 72 h"}, "TCCSUP": {"test_system": "TCCSUP", "experiment": "MTS assay, combination study", "details": "Homo sapiens, TCC-SUP, 72 h"}, "RL95-2": {"test_system": "RL95-2", "experiment": "MTS assay, combination study", "details": "Homo sapiens, RL95-2, 72 h"}, "PIK3CA cells": {"test_system": "PIK3CA cells", "experiment": "Viability of PIK3CA cells", "type": "cell-based, human", "details": "72 hours"}, "IMR-32": {"test_system": "IMR-32", "experiment": "MTS assay, combination study", "details": "Homo sapiens, IMR-32, 72 h"}, "U87MG": {"test_system": "U87MG", "experiment": "MTS assay, combination study", "details": "Homo sapiens, U-87 MG, 72 h"}, "SCC-9": {"test_system": "SCC-9", "experiment": "MTS assay, combination study", "details": "Homo sapiens, SCC-9, 72 h"}, "MDA-MB-231": {"test_system": "MDA-MB-231", "experiment": "MTS assay, combination study", "details": "Homo sapiens, MDA-MB-231, 72 h"}, "SW962": {"test_system": "SW962", "experiment": "MTS assay, combination study", "details": "Homo sapiens, SW 962, 72 h"}, "[2]": {"test_system": "pPRAS40 in KU-19-19 (E17K) mutant bladder cancer cells", "experiment": "pPRAS40 in KU-19-19 cells, two hour treatment", "details": "normal medium, 2 hours, FIGS. 17 and 18"}, "SCC-25": {"test_system": "SCC-25", "experiment": "MTS assay, combination study", "details": "Homo sapiens, SCC-25, 72 h"}, "639-V": {"test_system": "639-V", "experiment": "MTS assay, combination study", "details": "Homo sapiens, 72 h"}, "[3]": {"test_system": "pAKT in KU-19-19 (E17K) mutant bladder cancer cells", "experiment": "pAKT in KU-19-19 cells, two hour treatment", "details": "normal medium, 2 hours, FIGS. 17 and 18"}, "[4]": {"test_system": "AKT1 phosphorylation in Proteus single cell clones", "details": "A6B AKT1 p.E17K positive and E8F9A mutation negative cells; with or without serum; 24 hours; FIG. 6"}, "[5]": {"test_system": "S6 phosphorylation in Proteus single cell clones", "details": "24 hours"}, "REC-1": {"test_system": "REC-1", "experiment": "MTS assay, combination study", "details": "Homo sapiens, Rec1, 72 h"}, "CaoV-3": {"test_system": "CaoV-3", "experiment": "MTS assay, combination study", "details": "Homo sapiens, Caov-3, 72 h"}, "HEC-1B": {"test_system": "HEC-1B", "experiment": "MTS assay, combination study", "details": "Homo sapiens, 72 h"}, "A-172": {"test_system": "A-172", "experiment": "MTS assay, combination study", "details": "Homo sapiens, A 172, 72 h"}, "AN3CA [6]": {"test_system": "AN3CA", "experiment": "MTS assay, combination study", "details": "Homo sapiens, AN3-CA, 72 h"}, "Ca Ski": {"test_system": "Ca Ski", "experiment": "MTS assay, combination study", "details": "Homo sapiens, 72 h"}, "MDA-MB-468": {"test_system": "MDA-MB-468", "experiment": "MTS assay, combination study", "details": "Homo sapiens, MDA-MB-468, 72 h"}, "MFE-280": {"test_system": "MFE-280", "experiment": "MTS assay, combination study", "details": "Homo sapiens, MFE-280, 72 h"}, "MFE296": {"test_system": "MFE296", "experiment": "MTS assay, combination study", "details": "Homo sapiens, MFE-296, 72 h"}, "SNG-II": {"test_system": "SNG-II", "experiment": "MTS assay, combination study", "details": "72 h"}, "BT474": {"test_system": "BT474", "experiment": "MTS assay", "type": "cell-based", "details": "Homo sapiens, BT-474, read-out: Average of [CELL], IC50, MTS (72 hours; 10 Percent; FBS)", "description": "(§1) Cell proliferation analysis."}, "IGROV": {"test_system": "IGROV", "experiment": "MTS assay", "type": "cell-based", "details": "read-out: Average of [CELL], IC50, MTS (72 hours; 10 Percent; FBS)", "description": "as §1"}, "AN3CA [7]": {"test_system": "AN3CA", "experiment": "MTS assay", "type": "cell-based", "details": "Homo sapiens, AN3-CA, read-out: Average of [CELL], IC50, MTS (72 hours; 10 Percent; FBS)", "description": "as §1"}, "Zr75-1": {"test_system": "Zr75-1", "experiment": "MTS assay", "type": "cell-based", "details": "Homo sapiens, ZR-75-1, read-out: Average of [CELL], IC50, MTS (72 hours; 10 Percent; FBS)", "description": "as §1"}, "LnCap": {"test_system": "LnCap", "experiment": "MTS assay", "type": "cell-based", "details": "Homo sapiens, read-out: Average of [CELL], IC50, MTS (72 hours; 10 Percent; FBS)", "description": "as §1"}, "A2780": {"test_system": "A2780", "experiment": "MTS assay", "type": "cell-based", "details": "Homo sapiens, read-out: Average of [CELL], IC50, MTS (72 hours; 10 Percent; FBS)", "description": "as §1"}, "NCI-H460": {"test_system": "NCI-H460", "experiment": "MTS assay, combination study", "details": "Homo sapiens, NCI-H460, 72 h"}},
  "note": "Read-outs that look alike come from different tables or passages of the source.",
  "data": [
    {"compound": "Nc1ncccc1-c1nc2ccc(-c3ccccc3)nc2n1-c1ccc(C2(N)CCC2)cc1", "note": "[Compound 1, 3-(3-(4-(1-aminocyclobutyl)phenyl)-5-phenyl-3H-imidazo[4,5-b]pyridin-2-yl)pyridin-2-amine]", "values": [
      {"measurement": "GI50", "setting": "EN", "result": "1.33 ± 0.57", "unit": "µM"},
      {"measurement": "GI50", "setting": "HCT116", "result": "7.56 ± 1.64", "unit": "µM"},
      {"measurement": "phosphorylation status of S6", "setting": "[1]", "result": "a modest affect on mutation positive cells both with and without serum"},
      {"measurement": "GI50", "setting": "Fadu", "result": "8.95 ± 1.75", "unit": "µM"},
      {"measurement": "GI50", "setting": "TOV21G", "result": "8.62 ± 4.07", "unit": "µM"},
      {"measurement": "GI50", "setting": "TCCSUP", "result": "1.62 ± 0.31", "unit": "µM"},
      {"measurement": "GI50", "setting": "RL95-2", "result": "2.06 ± 0.47", "unit": "µM"},
      {"measurement": "viability of PIK3CA cells", "setting": "PIK3CA cells; low serum (0.5%), 24 hours serum starvation, FIG. 4", "result": "mutation positive cells are more sensitive than control cells"},
      {"measurement": "viability of PIK3CA cells", "setting": "PIK3CA cells; presence of serum, mutation positive vs negative cell lines, FIG. 3", "result": "mutation positive cells are more sensitive down to 1.25 uM"},
      {"measurement": "GI50", "setting": "IMR-32", "result": "4.79 ± 0.42", "unit": "µM"},
      {"measurement": "GI50", "setting": "U87MG", "result": "11.3 ± 2.49", "unit": "µM"},
      {"measurement": "GI50", "setting": "SCC-9", "result": "5.37 ± 0.8", "unit": "µM"},
      {"measurement": "GI50", "setting": "MDA-MB-231", "result": 8.33, "unit": "µM"},
      {"measurement": "GI50", "setting": "SW962", "result": "4.41 ± 0.17", "unit": "µM"},
      {"measurement": "pPRAS40", "setting": "[2]", "result": "inhibit"},
      {"measurement": "GI50", "setting": "SCC-25", "result": "1.34 ± 0.85", "unit": "µM"},
      {"measurement": "GI50", "setting": "639-V", "result": "4.58 ± 0.05", "unit": "µM"},
      {"measurement": "pAKT", "setting": "[3]", "result": "inhibit"},
      {"measurement": "phosphorylation status of AKT1", "setting": "[4]", "result": "a decrease in phosphorylation with increasing dose"},
      {"measurement": "pS6 levels", "setting": "[5]; A6B and E8F9A cells grown in normal medium, FIG. 7B", "result": "only a slight affect"},
      {"measurement": "pS6 levels", "setting": "[5]; A6B and E8F9A cells grown in serum free medium, FIG. 7A", "result": "does not appear to have an effect on pS6 levels"},
      {"measurement": "GI50", "setting": "REC-1", "result": "9.03 ± 1.15", "unit": "µM"},
      {"measurement": "GI50", "setting": "CaoV-3", "result": "6.66 ± 1.57", "unit": "µM"},
      {"measurement": "GI50", "setting": "HEC-1B", "result": "4.09 ± 0.77", "unit": "µM"},
      {"measurement": "GI50", "setting": "A-172", "result": "6.79 ± 1.48", "unit": "µM"},
      {"measurement": "GI50", "setting": "AN3CA [6]", "result": "0.75 ± 0.24", "unit": "µM"},
      {"measurement": "GI50", "setting": "Ca Ski", "result": "5.82 ± 0.68", "unit": "µM"},
      {"measurement": "GI50", "setting": "MDA-MB-468", "result": "1.34 ± 0.41", "unit": "µM"},
      {"measurement": "GI50", "setting": "MFE-280", "result": "0.11 ± 0.08", "unit": "µM"},
      {"measurement": "GI50", "setting": "MFE296", "result": "0.82 ± 0.38", "unit": "µM"},
      {"measurement": "GI50", "setting": "SNG-II", "result": "5.85 ± 0.83", "unit": "µM"},
      {"measurement": "IC50", "setting": "BT474", "result": 1.3, "unit": "µM"},
      {"measurement": "IC50", "setting": "IGROV", "result": 1.7, "unit": "µM"},
      {"measurement": "IC50", "setting": "AN3CA [7]", "result": 0.62, "unit": "µM"},
      {"measurement": "IC50", "setting": "Zr75-1", "result": 4.2, "unit": "µM"},
      {"measurement": "IC50", "setting": "LnCap", "result": 2.1, "unit": "µM"},
      {"measurement": "IC50", "setting": "A2780", "result": 0.72, "unit": "µM"},
      {"measurement": "GI50", "setting": "NCI-H460", "result": "12.5 ± 8.84", "unit": "µM"}
    ]}
  ]
}
